*1 amine or outer side, *2 acyl side, *3 side chain or, on linkers, in order; H or OH if unused. Where a SMILES comes first, the peptide text is derived from it. [ ]: non-standard residue; d: D form. The star is where a group is joined. Dolaproine = CO[C@@H]([C@@H]1CCCN1)[C@@H](C)C(=O)O; X11 = CC(C)(COC(=O)*)SSc1nc2ccc(C(=O)O)cc2[nH]1; X15 = C[C@H](COC(=O)*)SSc1ccc([N+](=O)[O-])cn1; X3 = CC(C)(COC(=O)*)SSc1ccc([N+](=O)[O-])cn1; Dil = CC[C@H](C)[C@H](NC)[C@@H](CC(=O)O)OC; X16 = CN(C)C(=O)c1cnccc1SSC(C)(C)COC(=O)*; X19 = Cn1cc(C(=O)O)nc1SSC(C)(C)COC(=O)*; X7 = CC(C)(COC(=O)*)SSc1nc2ccccc2[nH]1; PABC = O=C(OCc1ccc(N[*:1])cc1)[*:2]; X2 = C[C@@H](N*)[C@@H](O)c1ccccc1; NMeV = CN[C@H](C(=O)O)C(C)C
What was measured:
SK-BR-3 cells = test: In vitro IC50 of MMAE ADCs, Cell Titer-Glo, SK-BR-3; format: cell-based; conditions: 5 days
Description: (§1) The in vitro IC50 of ADC compounds MMAE 1, MMAE 2, MMAE 5 and MMAE 6 against SK-BR-3 and KPL-4 cells was evaluated. The cells were plated in 96-well plates (SK-BR-3 at 5000 cell per well; KPL-4 at 1500 cells […]) in cysteine free RPMI+10% FBS+20 mM glutamine+50 pM cysteine media and allowed to adhere overnight. Media was then removed and was replaced with fresh media containing different ADC concentrations. Cell viability was measured 5 days after drug administration using Cell Titer-Glo.

KPL-4 cells = test: In vitro IC50 of MMAE ADCs, Cell Titer-Glo, KPL-4; format: cell-based; conditions: 5 days
Description: as §1

[1] = In vitro disulfide cleavage and immolation by incubation with cysteine or glutathione (LC/MS); format: physicochemical; conditions: for Percentage of all products: pH 7.0, 37° C.
Description: In a first phase of the experiment, disulfide cleavage and immolation by incubation with cysteine and glutathione—with the thiol concentrations mimic those in plasma and cancer cells—was investigated using unconjugated small molecule model systems with para-nitro-pyridyl disulfide-containing linker drug analogs 1, 2 and 11 below. In particular, cleavage and immolation was evaluated in vitro by incubation at […] with cysteine ([…] or 200 μM) or glutathione (GSH, 4 mM) in 100 mM Tris buffer pH 7.0 containing 5% methanol at 37° C. Aliquots were taken at specified time points and the samples were analyzed by LC/MS on Sciex TripleTOF 5600 on a Hypersil Gold C18 column (100×2.1, […], Thermo Scientific). The column was eluted by a gradient of buffer A (0.1% formic acid in 10 mM ammonium acetate) to buffer B (0.1% formic acid in 10 mM ammonium acetate in 90% acetonitrile), 5% B 0-0.5 min, 5-25% B 0.5-8 min, 25-75% B 8-13 min, and 75-95% B 13-13.5 min, 95% B 13.5-14.5 min, 95-5% B 14.5-15 min at 0.4 mL/min. Under these conditions, para-nitropyridyl thiol was eluted at 5.3 min. All products (compounds 1, 2, 11, 3a, 3b, 4a, 4b, 12a, 12 b, 6, 7, 13 and 8) were separated and characterized by LC/MS/MS in a positive ESI ion mode. All analytes had the protonated molecular MH^+ as the major species with little source fragmentation. Full scan accurate mass peak areas were used to estimate relative abundance of each component and the disappearance of 1, 2, and 11 estimated relative full scan peak areas was consistent with that estimated based on the relative abundance compared to time 0 by MS or UV. The results are reported in Table 15 below and the analytical results are presented in Table 16 below where “Cmpd” refers to compound, “RT” refers to retention time in minutes, and “Calc. Mass” refers to calculated mass. The relative abundance of disulfide cleavage and immolation products over time were evaluated and are disclosed in FIGS. 12A to 12C, 13A to 13C, 14A to 14C and 15A to 15C where the products were monitored by LC/MS from incubations of linker drugs 1, 2, and 11 at pH 7.0 and 37° C. in the presence of: 0.2 mM cysteine (FIGS. 12A, 12B and 12C); 0.03 mM cysteine (FIGS. 13A, 13B and 13C); 4 mM glutathione (FIGS. 14A, 14B and 14C); and 0.03 mM glutathione (FIGS. 15A, 15B and 15C). In FIGS. 12A to 12C, 13A to 13C, 14A to 14C and 15A to 15C, compound reference numbers 1, 2, 3a, 3b, 4a, 4b, 6, 7, 8, 11, 12a, 12b and 13 correspond to the structures below.

calf DNA = test: DNA binding potential (incubation with calf DNA, extraction, LC/MS); conditions: 1 mg/mL calf DNA, 37° C., 1 hour
Description: For DNA binding analysis, compounds 7 and 8 were incubated at […] with 1 mg/mL calf DNA for 1 hour in 0.5 mL of 10 mM Bis-Tris, pH 7.1 at 37° C. Ethyl acetate (1 mL) was used to extract the reaction mixture twice by vortex (20 seconds) and centrifugation (4 min at 5,000×g). The combined organic extracts were concentrated under vacuum and reconstituted in 0.15 mL of 1:1 water/methanol before injection on LC/MS. The samples were analyzed by LC/MS/UV on Sciex TripleTOF 5600 on a Hypersil Gold C18 column (100×2.1, […], Thermo Scientific) in a positive ESI ion mode. The column was eluted by a gradient of buffer A (0.1% formic acid) to buffer B (0.1% formic acid in acetonitrile), 5% B 0-0.5 min, 5-25% B 0.5-8 min, 25-75% B 8-13 min, and 75-95% B 13-13.5 min, 95% B 13.5-14.5 min, 95-5% B 14.5-15 min at 0.4 mL/min.

[2] = target: human serum albumin Cys-34 (Homo sapiens, UniProt P02768); test: Conjugation of activated disulfide-MMAE molecules to human serum albumin (Conjugate Ratio, LC/MS); conditions: disulfide MMAE compound at 10 molar equivalents relative to HSA, 75 mM Tris pH 8.5, ~16 hours at room temperature
Description: In a first evaluation, MMAE was conjugated to human serum albumin (HSA). […] This Cys residue is blocked as a mixed disulfide with Cys or glutathione, preventing complete conjugation of other molecules to this residue. […] Conjugate reactions were analyzed by LC/MS. The extent of the expected MMAE-HSA conjugate formed during the reaction is represented by the “Conjugate Ratio”, measured by dividing the abundance of the MS peak for the MMAE-HSA conjugate by the sum total abundance of all peaks observed. The ideal value for the Conjugate Ratio is 1.0. The results are reported in table 31 below wherein the wavy line for the leaving group represents the point of attachment to the disulfide bond, and “HSA CR” refers to human serum albumin conjugate ratio.

[3] = target: T1, penetratin (AntP) peptide (Drosophila melanogaster, UniProt P02833); test: Conjugation of activated disulfide-MMAE molecules to penetratin (AntP) peptide (% Product); conditions: peptide 25 uM, disulfide MMAE 5 equivalents, 75 mM Tris pH 8.5 and 10% DMF, ~16 hours at room temperature, UV peak area
T1 construct: C-terminal amide (CONH2); made in house; host or cells: chemical synthesis (Fmoc solid-phase peptide synthesis)
Description: In a second evaluation, MMAE was conjugated to penetratin (AntP) peptide. The AntP peptide, with sequence H2N-[…]-CONH2 (SEQ ID NO:1) bearing a free Cys thiol at the C-terminus, was synthesized via standard Fmoc solid-phase peptide synthesis methods. This peptide was conjugated at a concentration of 25 uM to disulfide MMAE molecules with varying leaving groups (5 equivalents) in a buffered solution composed of 75 mM Tris, pH 8.5 and 10% DMF for ˜16 hours at room temperature. Extent of the reaction was measured by dividing the integrated area for the UV peak of the MMAE-AntP conjugate by the sum of all peaks (“% Product”). The ideal value for % Product is 100%. The results are reported in table 31 below wherein the wavy line for the leaving group represent the point of attachment to the disulfide bond, and “AntP % P” refers to penetratin (AntP) peptide % product.

[4] = test system: target-expressing cell lines; conditions: target-expressing cell lines (Hartley 2011); cited from earlier work

human serum albumin Cys-34, sequence (P02768 25-609): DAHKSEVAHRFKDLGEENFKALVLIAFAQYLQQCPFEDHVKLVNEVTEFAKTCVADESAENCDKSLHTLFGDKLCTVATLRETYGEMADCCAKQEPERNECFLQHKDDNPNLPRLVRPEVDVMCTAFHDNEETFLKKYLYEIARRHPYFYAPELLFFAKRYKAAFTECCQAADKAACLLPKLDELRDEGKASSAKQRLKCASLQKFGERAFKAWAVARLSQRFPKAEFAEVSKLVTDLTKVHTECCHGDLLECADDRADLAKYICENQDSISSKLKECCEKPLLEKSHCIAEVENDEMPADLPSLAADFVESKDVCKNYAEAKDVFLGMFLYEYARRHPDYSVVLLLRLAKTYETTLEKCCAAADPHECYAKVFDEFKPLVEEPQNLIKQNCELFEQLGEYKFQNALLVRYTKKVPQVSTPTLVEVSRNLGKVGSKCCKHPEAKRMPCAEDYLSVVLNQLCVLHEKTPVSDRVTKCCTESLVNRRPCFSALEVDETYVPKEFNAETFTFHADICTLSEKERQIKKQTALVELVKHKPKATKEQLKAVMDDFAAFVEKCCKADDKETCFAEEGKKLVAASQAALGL

SMILES: CC[C@H](C)[C@@H]([C@@H](CC(=O)N1CCC[C@H]1[C@H](OC)[C@@H](C)C(=O)N[C@H](C)[C@@H](O)c1ccccc1)OC)N(C)C(=O)[C@@H](NC(=O)[C@H](C(C)C)N(C)C(=O)OCc1ccc(NC(=O)OC[C@@H](C)SSc2ccc([N+](=O)[O-])cn2)cc1)C(C)C [MMAE 6] ({X15-PABC}-[NMeV]V[Dil][Dolaproine]-X2)
- SK-BR-3 IC50 (SK-BR-3 cells): 0.78 µg/mL
- KPL-4 IC50 (KPL-4 cells): 0.411 µg/mL

SMILES: O=[N+]([O-])c1ccc(S)nc1 [Compound 5, para-nitropyridyl thiol]
- pKa (pKa of thiol compounds): 4.7 to 4.8

SMILES: C=C1C[C@H]2C=Nc3cc(OCCCCCOc4cc5c(cc4OC)C(=O)N4CC(=C)C[C@H]4[C@H](O)N5C(=O)OCC4(S)CC4)c(OC)cc3C(=O)N2C1 [Compound 7]
- Percentage of all products ([1]; 30 μM cysteine, 1 h): 5.1%
- Percentage of all products ([1]; 30 μM cysteine, 4 h): 9.7%
- Percentage of all products ([1]; 30 μM cysteine, 24 h): 11.6%
- Percentage of all products ([1]; 200 μM cysteine, 1 h): 44.7%
- Percentage of all products ([1]; 200 μM cysteine, 4 h): 73.6%
- Percentage of all products ([1]; 200 μM cysteine, 24 h): 87.3%
- Percentage of all products ([1]; 4 mM GSH, 1 h): 80.8%
- Percentage of all products ([1]; 4 mM GSH, 4 h): 89.7%
- Percentage of all products ([1]; 4 mM GSH, 24 h): 92.3%
- Immolation of thiol intermediate ([1]; incubation with cysteine or glutathione): did not appreciably immolate and appeared to be stable
- DNA binding (calf DNA): does not bind to DNA
- pKa (pKa of thiol compounds): 4.7 to 4.8

SMILES: CC[C@H](C)[C@@H]([C@@H](CC(=O)N1CCC[C@H]1[C@H](OC)[C@@H](C)C(=O)N[C@H](C)[C@@H](O)c1ccccc1)OC)N(C)C(=O)[C@@H](NC(=O)[C@H](C(C)C)N(C)C(=O)OCC(C)(C)SSc1nc(C(=O)O)cn1C)C(C)C (X19-[NMeV]V[Dil][Dolaproine]-X2)
- HAS CR (HSA Conjugation Ratio) [2]: 0.38
- AntP % P (penetratin (AntP) peptide % product) [3]: 4.9%

SMILES: CC[C@H](C)[C@@H]([C@@H](CC(=O)N1CCC[C@H]1[C@H](OC)[C@@H](C)C(=O)N[C@H](C)[C@@H](O)c1ccccc1)OC)N(C)C(=O)[C@@H](NC(=O)[C@H](C(C)C)N(C)C(=O)OCC(C)(C)SSc1nc2ccccc2[nH]1)C(C)C (X7-[NMeV]V[Dil][Dolaproine]-X2)
- HAS CR (HSA Conjugation Ratio) [2]: 0.52
- AntP % P (penetratin (AntP) peptide % product) [3]: 18%

SMILES: CC[C@H](C)[C@@H]([C@@H](CC(=O)N1CCC[C@H]1[C@H](OC)[C@@H](C)C(=O)N[C@H](C)[C@@H](O)c1ccccc1)OC)N(C)C(=O)[C@@H](NC(=O)[C@H](C(C)C)N(C)C(=O)OCC(C)(C)SSc1ccc([N+](=O)[O-])cn1)C(C)C (X3-[NMeV]V[Dil][Dolaproine]-X2)
- HAS CR (HSA Conjugation Ratio) [2]: 0.11
- AntP % P (penetratin (AntP) peptide % product) [3]: 14%

SMILES: CC[C@H](C)[C@@H]([C@@H](CC(=O)N1CCC[C@H]1[C@H](OC)[C@@H](C)C(=O)N[C@H](C)[C@@H](O)c1ccccc1)OC)N(C)C(=O)[C@@H](NC(=O)[C@H](C(C)C)N(C)C(=O)OCC(C)(C)SSc1nc2ccc(C(=O)O)cc2[nH]1)C(C)C (X11-[NMeV]V[Dil][Dolaproine]-X2)
- HAS CR (HSA Conjugation Ratio) [2]: 0.64
- AntP % P (penetratin (AntP) peptide % product) [3]: 20%

SMILES: C=C1C[C@H]2C=Nc3cc(OCCCCCOc4cc5c(cc4OC)C(=O)N4CC(=C)C[C@H]4C=N5)c(OC)cc3C(=O)N2C1 [Compound 8]
- DNA binding (calf DNA): quickly binds to DNA
- Fraction unextractable after incubation in DNA solution (calf DNA): approximately 94%
- IC50 [4]: ~0.05 nM

SMILES: CC[C@H](C)[C@@H]([C@@H](CC(=O)N1CCC[C@H]1[C@H](OC)[C@@H](C)C(=O)N[C@H](C)[C@@H](O)c1ccccc1)OC)N(C)C(=O)[C@@H](NC(=O)[C@H](C(C)C)N(C)C(=O)OCC(C)(C)SSc1ccncc1C(=O)N(C)C)C(C)C (X16-[NMeV]V[Dil][Dolaproine]-X2)
- HAS CR (HSA Conjugation Ratio) [2]: 0.22
- AntP % P (penetratin (AntP) peptide % product) [3]: 51%

Reference: patent publication US10729738B2, “Hindered disulfide drug conjugates” (priority 2015, dated 2020)
